How the values were obtained:
鸡蛔虫 = assay: Chicken roundworm removal test (Test 1); assay type: in vivo
巴西日园线虫 = assay: Anthelmintic efficacy against rat intestinal nematode (Test 3); assay type: in vivo; details: male Wistar rats, 2000 larvae s.c., 10 mg/kg 7 days after infection, adult worms in small intestine counted 10 days after dosing

Compound	存留虫收(average value±SD) (巴西日园线虫)	杀虫率 (鸡蛔虫; dose 5 mg/kg) [%]	other results
CC(C)C[C@H]1C(=O)O[C@H](Cc2ccc(O)cc2)C(=O)N(C)[C@@H](CC(C)C)C(=O)O[C@H](C)C(=O)N(C)[C@@H](CC(C)C)C(=O)O[C@H](Cc2ccccc2)C(=O)N(C)[C@@H](CC(C)C)C(=O)O[C@H](C)C(=O)N1C [PF1022 E, 环—(—L—MeLeu—D—Lac—L—MeLeu—D—TYRA—L—MeLeu-D—Lac—L—Mekeu—D—PhLac)]	2175±134.4	–	杀虫率 (鸡蛔虫; dose 0.5 mg/kg): 70%
CC(C)CC1C(=O)OC(C)C(=O)N(C)C(CC(C)C)C(=O)OC(C)C(=O)N(C)C(CC(C)C)C(=O)OC(C)C(=O)N(C)C(CC(C)C)C(=O)OC(C)C(=O)N1C (centres unmarked) [PF1022-002, 环—(L—meLeu—D—Lac—)4]	1976.5±306.2	–	–
CC(C)C[C@H]1OC(=O)[C@H](CC(C)C)N(C)C(=O)[C@@H](C)OC(=O)[C@H](CC(C)C)N(C)C(=O)[C@@H](Cc2ccccc2)OC(=O)[C@H](CC(C)C)N(C)C(=O)[C@@H](C)OC(=O)[C@H](CC(C)C)N(C)C1=O [PF1022-003, 环—(—L—MeLeu—D—Lac—L—MeLeu—D—PhLac—L—Meleu—D—Lac—L—Meleu—D—LEUA)]	689±48.1	–	杀虫率 (鸡蛔虫; dose 10 mg/kg): 76%
CC(C)CC1NC(=O)C(Cc2ccccc2)OC(=O)C(CC(C)C)N(C)C(=O)C(C)OC(=O)C(CC(C)C)NC(=O)C(Cc2ccccc2)OC(=O)C(CC(C)C)N(C)C(=O)C(C)OC1=O (centres unmarked) [PF1022-218, 环—(L—MeLeu—D—PhLac—L—Leu—D—Lac)2]	2400±362.0	–	–
CC(C)C[C@@H]1NC(=O)[C@@H](C)OC(=O)[C@H](CC(C)C)N(C)C(=O)[C@@H](Cc2ccccc2)OC(=O)[C@H](CC(C)C)NC(=O)[C@@H](C)OC(=O)[C@H](CC(C)C)N(C)C(=O)[C@@H](Cc2ccccc2)OC1=O [PF1022-219, 环—(L—MeLeu—D—Lac—L—Leu—D—PhLac)2]	2084.5±94.0	–	–
CC(C)CC1C(=O)OC(CC2CCCCC2)C(=O)N(C)C(CC(C)C)C(=O)OC(C)C(=O)N(C)C(CC(C)C)C(=O)OC(CC2CCCCC2)C(=O)N(C)C(CC(C)C)C(=O)OC(C)C(=O)N1C (centres unmarked) [PF1022-ADH, 十二氢—PF 1022]	–	30	–
CC(C)CC1C(=O)OC(CC2CCCCC2)C(=O)N(C)C(CC(C)C)C(=O)OC(C)C(=O)N(C)C(CC(C)C)C(=O)OC(Cc2ccccc2)C(=O)N(C)C(CC(C)C)C(=O)OC(C)C(=O)N1C (centres unmarked) [PF1022-AHH, 六氢—PF1022]	–	62	–
CC(C)C[C@H]1C(=O)O[C@H](Cc2ccccc2)C(=O)N(C)[C@@H](CC(C)C)C(=O)O[C@H](C)C(=O)N(C)[C@@H](CC(C)C)C(=O)O[C@H](Cc2ccccc2)C(=O)N(C)[C@@H](CC(C)C)C(=O)O[C@H](C)C(=O)N1C [PF1022]	403±32.5	–	杀虫率 (鸡蛔虫; dose 0.5 mg/kg): 50-70%; 杀虫率 (鸡蛔虫; dose 1.0 mg/kg): 60-86%
环—(L—MeLeu—D—PhLac—L—MeLeu—D—Lac—L—MeLeu—D—TYRA(OBn)—L—MeLeu—D—Lac) [PF1022-022]	–	84	–
环—(L—MeLeu—D—VALA—L—MeLeu—D—Lac)2 [PF1022-209]	827±388.9	–	–

From patent publication CN1119437A, “环缩酚酸肽pf1022衍生物” (Meiji Seika Kaisha Ltd, priority 1993, dated 1996)
